Patent US20100267561A1, “HERBICIDAL PYRIDAZINONE DERIVATIVES” (priority 2007, published 2010)

Key:
Assay type in all cases: in vivo
rice (Oryza sativa) = assay: Test B flooded paddy test plant response
Description: (§1) Plant species in the flooded paddy test consisted of rice (Oryza sativa), umbrella sedge (Cyperus difformis), ducksalad (Heteranthera limosa) and barnyardgrass (Echinochloa crus-galli) grown to the 2-leaf stage for testing. At time of treatment, test pots were flooded to 3 cm above the soil surface, treated by application of test compounds directly to the paddy water, and then maintained at that water depth for the duration of the test. Treated plants and controls were maintained in a greenhouse for 13 to 15 days, after which time all species were compared to controls and visually evaluated. Plant response ratings, summarized in Table B, are based on a scale of 0 to 100 where 0 is no effect and 100 is complete control. A dash (-) response means no test result.

[1] = test system: barnyardgrass (Echinochloa crus-galli); assay: Test B flooded paddy test plant response
Description: as §1

[2] = test system: ducksalad (Heteranthera limosa); assay: Test B flooded paddy test plant response
Description: as §1

[3] = test system: umbrella sedge (Cyperus difformis); assay: Test B flooded paddy test plant response
Description: as §1

[4] = test system: pigweed (Amaranthus retroflexus); assay: Test A pre-/postemergence plant response
Description: (§2) Seeds of species selected from barnyardgrass (Echinochloa crus-galli), large crabgrass (Digitaria sanguinalis), giant foxtail (Setaria faberi), blackgrass (Alopecurus myosuroides), canarygrass (Phalaris minor), morningglory (Ipomoea coccinea), pigweed (Amaranthus retroflexus), velvetleaf (Abutilon theophrasti), wheat (Triticum aestivum), and corn (Zea mays) were planted into a blend of loam soil and sand and treated preemergence with a directed soil spray using test chemicals formulated in a non-phytotoxic solvent mixture which included a surfactant. At the same time these species were also treated with postemergence applications of test chemicals formulated in the same manner.
(§3) Plants ranged in height from 2 to 10 cm and were in the one- to two-leaf stage for the postemergence treatment. Treated plants and untreated controls were maintained in a greenhouse for approximately 10 days, after which time all treated plants were compared to untreated controls and visually evaluated for injury. Plant response ratings, summarized in Table A, are based on a 0 to 100 scale where 0 is no effect and 100 is complete control. A dash (-) response means no test results.

[5] = test system: giant foxtail (Setaria faberi); assay: Test A pre-/postemergence plant response
Description: as §2, §3

[6] = test system: morningglory (Ipomoea coccinea); assay: Test A pre-/postemergence plant response
Description: as §2, §3

corn (Zea mays) = assay: Test A pre-/postemergence plant response
Description: as §2, §3

[7] = test system: large crabgrass (Digitaria sanguinalis); assay: Test A pre-/postemergence plant response
Description: as §2, §3

[8] = test system: velvetleaf (Abutilon theophrasti); assay: Test A pre-/postemergence plant response
Description: as §2, §3

[9] = test system: barnyardgrass (Echinochloa crus-galli); assay: Test A pre-/postemergence plant response
Description: as §2, §3

[10] = test system: wheat (Triticum aestivum); assay: Test A pre-/postemergence plant response
Description: as §2, §3

[11] = Flood (flooded paddy test), 62 g ai/ha, scale 0 to 100, 0 no effect, 100 complete control
[12] = Flood (flooded paddy test), 125 g ai/ha, scale 0 to 100, 0 no effect, 100 complete control
[13] = Flood (flooded paddy test), 250 g ai/ha, scale 0 to 100, 0 no effect, 100 complete control
[14] = Flood, 31 g ai/ha, scale 0 to 100
[15] = Postemergence, 125 g ai/ha, 0 to 100 scale, 0 no effect, 100 complete control
[16] = Postemergence, 500 g ai/ha, 0 to 100 scale, 0 no effect, 100 complete control
[17] = Preemergence, 125 g ai/ha, 0 to 100 scale (0 no effect, 100 complete control)
[18] = Preemergence, 500 g ai/ha, 0 to 100 scale (0 no effect, 100 complete control)

Compound: Cc1cc(-c2ccc(OC(F)(F)F)cc2)nn1-c1c(O)cnn(C)c1=O [Compound 14]
- Plant response rating, Rice (rice (Oryza sativa); [11]): 0
- Plant response rating, Rice (rice (Oryza sativa); [12]): 0
- Plant response rating, Rice (rice (Oryza sativa); [13]): 20
- Plant response rating, Rice (rice (Oryza sativa); [14]): 0
- Plant response rating, Barnyardgrass [1, 11]: 0
- Plant response rating, Barnyardgrass [1, 12]: 20
- Plant response rating, Barnyardgrass [1, 13]: 20
- Plant response rating, Barnyardgrass [1, 14]: 0
- Plant response rating, Ducksalad [2, 11]: 0
- Plant response rating, Ducksalad [2, 12]: 40
- Plant response rating, Ducksalad [2, 13]: 40
- Plant response rating, Ducksalad [2, 14]: 0
- Plant response rating, Sedge, Umbrella [3, 11]: 60
- Plant response rating, Sedge, Umbrella [3, 13]: 60
- Plant response rating, Sedge, Umbrella [3, 14]: 0
- Plant response rating, Pigweed [4, 15]: 0
- Plant response rating, Pigweed [4, 16]: 0
- Plant response rating, Pigweed [4, 17]: 0
- Plant response rating, Pigweed [4, 18]: 0
- Plant response rating, Foxtail, Giant [5, 15]: 80
- Plant response rating, Foxtail, Giant [5, 16]: 100
- Plant response rating, Foxtail, Giant [5, 17]: 80
- Plant response rating, Foxtail, Giant [5, 18]: 100
- Plant response rating, Morningglory [6, 15]: 0
- Plant response rating, Morningglory [6, 16]: 0
- Plant response rating, Morningglory [6, 17]: 0
- Plant response rating, Morningglory [6, 18]: 0
- Plant response rating, Corn (corn (Zea mays); [15]): 40
- Plant response rating, Corn (corn (Zea mays); [16]): 80
- Plant response rating, Corn (corn (Zea mays); [17]): 0
- Plant response rating, Corn (corn (Zea mays); [18]): 60
- Plant response rating, Crabgrass, Large [7, 15]: 60
- Plant response rating, Crabgrass, Large [7, 16]: 90
- Plant response rating, Crabgrass, Large [7, 17]: 70
- Plant response rating, Crabgrass, Large [7, 18]: 90
- Plant response rating, Velvetleaf [8, 15]: 0
- Plant response rating, Velvetleaf [8, 16]: 30
- Plant response rating, Velvetleaf [8, 17]: 0
- Plant response rating, Velvetleaf [8, 18]: 20
- Plant response rating, Barnyardgrass [9, 15]: 70
- Plant response rating, Barnyardgrass [9, 16]: 100
- Plant response rating, Barnyardgrass [9, 17]: 70
- Plant response rating, Barnyardgrass [9, 18]: 100
- Plant response rating, Wheat [10, 15]: 40
- Plant response rating, Wheat [10, 16]: 70
- Plant response rating, Wheat [10, 17]: 10
- Plant response rating, Wheat [10, 18]: 80

Compound: Cc1nc(-c2ccc(Cl)cc2)nn1-c1c(O)cnn(C)c1=O [Compound 17]
- Plant response rating, Rice (rice (Oryza sativa); [11]): 15
- Plant response rating, Rice (rice (Oryza sativa); [12]): 20
- Plant response rating, Rice (rice (Oryza sativa); [13]): 40
- Plant response rating, Rice (rice (Oryza sativa); [14]): 0
- Plant response rating, Barnyardgrass [1, 11]: 0
- Plant response rating, Barnyardgrass [1, 12]: 0
- Plant response rating, Barnyardgrass [1, 13]: 0
- Plant response rating, Barnyardgrass [1, 14]: 0
- Plant response rating, Ducksalad [2, 11]: 40
- Plant response rating, Ducksalad [2, 12]: 40
- Plant response rating, Ducksalad [2, 13]: 95
- Plant response rating, Ducksalad [2, 14]: 40
- Plant response rating, Sedge, Umbrella [3, 11]: 40
- Plant response rating, Sedge, Umbrella [3, 12]: 40
- Plant response rating, Sedge, Umbrella [3, 13]: 70
- Plant response rating, Sedge, Umbrella [3, 14]: 30
- Plant response rating, Pigweed [4, 15]: 0
- Plant response rating, Pigweed [4, 16]: 0
- Plant response rating, Pigweed [4, 17]: 0
- Plant response rating, Pigweed [4, 18]: 0
- Plant response rating, Foxtail, Giant [5, 15]: 80
- Plant response rating, Foxtail, Giant [5, 16]: 90
- Plant response rating, Foxtail, Giant [5, 17]: 40
- Plant response rating, Foxtail, Giant [5, 18]: 90
- Plant response rating, Morningglory [6, 15]: 0
- Plant response rating, Morningglory [6, 16]: 0
- Plant response rating, Morningglory [6, 17]: 0
- Plant response rating, Morningglory [6, 18]: 0
- Plant response rating, Corn (corn (Zea mays); [15]): 0
- Plant response rating, Corn (corn (Zea mays); [16]): 40
- Plant response rating, Corn (corn (Zea mays); [17]): 0
- Plant response rating, Corn (corn (Zea mays); [18]): 40
- Plant response rating, Crabgrass, Large [7, 15]: 40
- Plant response rating, Crabgrass, Large [7, 16]: 80
- Plant response rating, Crabgrass, Large [7, 17]: 0
- Plant response rating, Crabgrass, Large [7, 18]: 70
- Plant response rating, Velvetleaf [8, 15]: 0
- Plant response rating, Velvetleaf [8, 16]: 0
- Plant response rating, Velvetleaf [8, 17]: 0
- Plant response rating, Velvetleaf [8, 18]: 0
- Plant response rating, Barnyardgrass [9, 15]: 50
- Plant response rating, Barnyardgrass [9, 16]: 90
- Plant response rating, Barnyardgrass [9, 17]: 40
- Plant response rating, Barnyardgrass [9, 18]: 100
- Plant response rating, Wheat [10, 15]: 0
- Plant response rating, Wheat [10, 16]: 50
- Plant response rating, Wheat [10, 17]: 20
- Plant response rating, Wheat [10, 18]: 50

Compound: CSc1cc(-c2ccc(F)cc2)nn1-c1c(O)cnn(C)c1=O [Compound 23]
- Plant response rating, Pigweed [4, 15]: 0
- Plant response rating, Pigweed [4, 16]: 0
- Plant response rating, Pigweed [4, 17]: 0
- Plant response rating, Pigweed [4, 18]: 0
- Plant response rating, Foxtail, Giant [5, 15]: 20
- Plant response rating, Foxtail, Giant [5, 16]: 80
- Plant response rating, Foxtail, Giant [5, 17]: 20
- Plant response rating, Foxtail, Giant [5, 18]: 70
- Plant response rating, Morningglory [6, 15]: 0
- Plant response rating, Morningglory [6, 16]: 0
- Plant response rating, Morningglory [6, 17]: 0
- Plant response rating, Morningglory [6, 18]: 0
- Plant response rating, Corn (corn (Zea mays); [15]): 0
- Plant response rating, Corn (corn (Zea mays); [16]): 20
- Plant response rating, Corn (corn (Zea mays); [17]): 0
- Plant response rating, Corn (corn (Zea mays); [18]): 20
- Plant response rating, Crabgrass, Large [7, 15]: 0
- Plant response rating, Crabgrass, Large [7, 16]: 20
- Plant response rating, Crabgrass, Large [7, 17]: 0
- Plant response rating, Crabgrass, Large [7, 18]: 0
- Plant response rating, Velvetleaf [8, 15]: 0
- Plant response rating, Velvetleaf [8, 16]: 0
- Plant response rating, Velvetleaf [8, 17]: 0
- Plant response rating, Velvetleaf [8, 18]: 0
- Plant response rating, Barnyardgrass [9, 15]: 0
- Plant response rating, Barnyardgrass [9, 16]: 70
- Plant response rating, Barnyardgrass [9, 17]: 0
- Plant response rating, Barnyardgrass [9, 18]: 10
- Plant response rating, Wheat [10, 15]: 0
- Plant response rating, Wheat [10, 16]: 0
- Plant response rating, Wheat [10, 17]: 0
- Plant response rating, Wheat [10, 18]: 0
